Source: article PMC10216305, “Introduction of a Polyethylene Glycol Linker Improves Uptake of ^67Cu-NOTA-Conjugated Lactam-Cyclized Alpha-Melanocyte-Stimulating Hormone Peptide in Melanoma” (Cancers, 2023)
Positions of bridges follow the written chain, without caps; N, C: chain ends. Non-standard residues stand in square brackets, D forms with d. Residues, ends and D or L forms follow the SMILES beside them. *: point of attachment. NOTA = O=C(O)CN1CCN(CC(=O)O)CCN(CC(=O)*)CC1; Nle = CCCC[C@H](N)C(=O)O

Test: in vivo
Parameters: species or system mice
Conditions: C57, mouse, iv, total radioactivity
Method: All animal studies were conducted in compliance with Institutional Animal Care and Use Committee approval. C57 mice were purchased from Charles River Laboratory (Wilmington, NC). B16/F10 melanoma-bearing C57 mice were generated according to our previous publication. Each melanoma-bearing mouse was injected with 0.037 MBq of ^67Cu-NOTA-PEG2Nle-CycMSHhex or ^67Cu-NOTA-GGNle-CycMSHhex via the tail vein. The tumor uptake specificity of ^67Cu-NOTA-PEG2Nle-CycMSHhex and ^67Cu-NOTA-GGNle-CycMSHhex was determined by co-injecting 10 μg (6.07 nmol) of unlabeled NDP-MSH. Mice were sacrificed at 0.5, 2, 4, and 24 h post-injection, and tumors and organs of interest were harvested, weighed, and counted. The blood value was taken as 6.5% of the whole-body weight.

[1] = 0.037 MBq, Kidneys uptake (renal uptake)
[2] = 0.037 MBq, Normal organ uptake, except for kidney uptake
[3] = 0.037 MBq, Tumor/liver ratio as times the tumor/liver ratio of ^67Cu-NOTA-GGNle-CycMSHhex
[4] = 0.037 MBq, Uptake ratio Tumor/blood
[5] = 0.037 MBq, Uptake ratio Tumor/kidney
[6] = 0.037 MBq, Uptake ratio Tumor/liver
[7] = 0.037 MBq, Uptake ratio Tumor/lung
[8] = 0.037 MBq, Uptake ratio Tumor/muscle

CCCC[C@H](NC(=O)COCCOCCNC(=O)CN1CCN(CC(=O)O)CCN(CC(=O)O)CC1)C(=O)N[C@H]1CC(=O)NCCCC[C@@H](C(N)=O)NC(=O)[C@H](Cc2c[nH]c3ccccc23)NC(=O)[C@H](CCCNC(=N)N)NC(=O)[C@@H](Cc2ccccc2)NC(=O)[C@H](Cc2c[nH]cn2)NC1=O [^67Cu-NOTA-PEG2Nle-CycMSHhex, ^67Cu-1,4,7-triazacyclononane-1,4,7-triyl-triacetic acid-polyethylene glycol-Nle-c[Asp-His-DPhe-Arg-Trp-Lys]-CONH2, metal not drawn]
tissue uptake dose at 0.5 h (0.037 MBq): 0.83 ± 0.09 %ID
tissue uptake dose at 2 h (0.037 MBq): 0.95 ± 0.16 %ID
tissue uptake dose at 24 h (0.037 MBq): 0.77 ± 0.12 %ID
tissue uptake at 0.5 h (0.037 MBq, Blood uptake): 0.63 ± 0.26 %ID/g
tissue uptake at 0.5 h (0.037 MBq, Bone uptake): 0.6 ± 0.35 %ID/g
tissue uptake at 0.5 h (0.037 MBq, Brain uptake): 0.04 ± 0.02 %ID/g
tissue uptake at 24 h (0.037 MBq, Brain uptake): 0.04 ± 0.03 %ID/g
tissue uptake at 0.5 h (0.037 MBq, Heart uptake): 0.58 ± 0.18 %ID/g
tissue uptake at 2 h (0.037 MBq, Heart uptake): 0.79 ± 0.06 %ID/g
tissue uptake at 4 h (0.037 MBq, Heart uptake): 0.34 ± 0.08 %ID/g
tissue uptake at 0.5 h [1]: 6.43 ± 1.31 %ID/g
tissue uptake at 2 h [1]: 6.34 ± 1.63 %ID/g
tissue uptake at 4 h [1]: 2.6 ± 0.79 %ID/g
tissue uptake at 0.5 h (0.037 MBq, Liver uptake): 0.95 ± 0.19 %ID/g
tissue uptake at 2 h (0.037 MBq, Liver uptake): 1.09 ± 0.14 %ID/g
tissue uptake at 4 h (0.037 MBq, Liver uptake): 1.41 ± 0.26 %ID/g
tissue uptake at 24 h (0.037 MBq, Liver uptake): 0.84 ± 0.15 %ID/g
tissue uptake at 0.5 h (0.037 MBq, Lung uptake): 0.76 ± 0.16 %ID/g
tissue uptake at 4 h (0.037 MBq, Lung uptake): 0.62 ± 0.18 %ID/g
tissue uptake at 0.5 h (0.037 MBq, Muscle uptake): 0.48 ± 0.12 %ID/g
tissue uptake at 2 h [2]: < 2 %ID/g
tissue uptake at 4 h [2]: < 2.6 %ID/g
tissue uptake at 0.5 h (0.037 MBq, Skin uptake): 1.77 ± 0.28 %ID/g
tissue uptake at 4 h (0.037 MBq, Skin uptake): 0.18 ± 0.07 %ID/g
tissue uptake at 0.5 h (0.037 MBq, Spleen uptake): 0.37 ± 0.1 %ID/g
tissue uptake at 0.5 h (0.037 MBq, Stomach uptake): 1.13 ± 0.36 %ID/g
tissue uptake at 0.5 h (0.037 MBq, Tumor uptake): 8.83 ± 2.19 %ID/g
tissue uptake at 4 h (0.037 MBq, Tumor uptake): 24.1 ± 1.83 %ID/g
tissue uptake at 24 h (0.037 MBq, Tumor uptake): 9.13 ± 1.66 %ID/g
tissue to tissue ratio at 2 h [3]: 3.3
tissue to tissue ratio at 4 h [3]: 2
tissue to tissue ratio at 24 h [3]: 1.8
tissue to tissue ratio at 4 h [4]: 482
tissue to tissue ratio at 24 h [4]: 456
tissue to tissue ratio at 0.5 h [5]: 1.37
tissue to tissue ratio at 2 h [5]: 4.41
tissue to tissue ratio at 4 h [5]: 9.27
tissue to tissue ratio at 24 h [5]: 10.1
tissue to tissue ratio at 0.5 h [6]: 9.29
tissue to tissue ratio at 2 h [6]: 25.7
tissue to tissue ratio at 4 h [6]: 17.1
tissue to tissue ratio at 0.5 h [7]: 11.6
tissue to tissue ratio at 2 h [7]: 52.8
tissue to tissue ratio at 4 h [7]: 38.9
tissue to tissue ratio at 24 h [7]: 26.1
tissue to tissue ratio at 0.5 h [8]: 18.4
tissue to tissue ratio at 2 h [8]: 34.5
tissue to tissue ratio at 4 h [8]: 803
tissue to tissue ratio at 24 h [8]: 913
tissue uptake dose at 2 h: 2.09 ± 0.96 %ID
tissue to tissue ratio at 2 h (Uptake ratio Tumor/kidney): 0.34
tissue to tissue ratio at 2 h (Uptake ratio Tumor/liver): 0.98
tissue to tissue ratio at 2 h (Uptake ratio Tumor/lung): 2.44
tissue to tissue ratio at 2 h (Uptake ratio Tumor/muscle): 166

CCCC[C@H](NC(=O)CNC(=O)CNC(=O)CN1CCN(CC(=O)O)CCN(CC(=O)O)CC1)C(=O)N[C@H]1CC(=O)NCCCC[C@@H](C(N)=O)NC(=O)[C@H](Cc2c[nH]c3ccccc23)NC(=O)[C@H](CCCNC(=N)N)NC(=O)[C@@H](Cc2ccccc2)NC(=O)[C@H](Cc2c[nH]cn2)NC1=O [^67Cu-NOTA-GGNle-CycMSHhex, ^67Cu-NOTA-GlyGlyNle-CycMSHhex, metal not drawn] ({NOTA}-GG[Nle]DH[dF]RWK-NH2; lactam 4-9)
tissue uptake dose at 0.5 h (0.037 MBq): 1.46 ± 0.49 %ID
tissue uptake dose at 2 h (0.037 MBq): 1.3 ± 0.27 %ID
tissue uptake dose at 4 h (0.037 MBq): 2.7 ± 0.26 %ID
tissue uptake dose at 24 h (0.037 MBq): 0.94 ± 0.32 %ID
tissue uptake at 0.5 h (0.037 MBq, Blood uptake): 1.22 ± 0.08 %ID/g
tissue uptake at 4 h (0.037 MBq, Blood uptake): 0.06 ± 0.07 %ID/g
tissue uptake at 0.5 h (0.037 MBq, Bone uptake): 0.68 ± 0.1 %ID/g
tissue uptake at 4 h (0.037 MBq, Bone uptake): 0.06 ± 0.06 %ID/g
tissue uptake at 4 h (0.037 MBq, Brain uptake): 0.02 ± 0.03 %ID/g
tissue uptake at 24 h (0.037 MBq, Brain uptake): 0.02 ± 0.02 %ID/g
tissue uptake at 0.5 h [1]: 7.18 ± 2.63 %ID/g
tissue uptake at 2 h [1]: 5.08 ± 1.52 %ID/g
tissue uptake at 4 h [1]: 4.21 ± 0.92 %ID/g
tissue uptake at 24 h [1]: 1.19 ± 0.28 %ID/g
tissue uptake at 0.5 h (0.037 MBq, Liver uptake): 1.15 ± 0.07 %ID/g
tissue uptake at 2 h (0.037 MBq, Liver uptake): 1.49 ± 0.56 %ID/g
tissue uptake at 24 h (0.037 MBq, Liver uptake): 0.82 ± 0.12 %ID/g
tissue uptake at 2 h [2]: < 2 %ID/g
tissue uptake at 2 h (0.037 MBq, Pancreas uptake): 0.12 ± 0.08 %ID/g
tissue uptake at 24 h (0.037 MBq, Pancreas uptake): 0.02 ± 0.01 %ID/g
tissue uptake at 24 h (0.037 MBq, Skin uptake): 0.02 ± 0.01 %ID/g
tissue uptake at 0.5 h (0.037 MBq, Spleen uptake): 0.52 ± 0.32 %ID/g
tissue uptake at 4 h (0.037 MBq, Spleen uptake): 0.12 ± 0.08 %ID/g
tissue uptake at 0.5 h (0.037 MBq, Stomach uptake): 1.53 ± 0.53 %ID/g
tissue uptake at 2 h (0.037 MBq, Stomach uptake): 0.81 ± 0.14 %ID/g
tissue uptake at 0.5 h (0.037 MBq, Tumor uptake): 16.6 ± 1.4 %ID/g
tissue uptake at 4 h (0.037 MBq, Tumor uptake): 8.79 ± 1.31 %ID/g
tissue to tissue ratio at 0.5 h [4]: 13.6
tissue to tissue ratio at 2 h [4]: 389
tissue to tissue ratio at 4 h [4]: 146
tissue to tissue ratio at 24 h [4]: 492
tissue to tissue ratio at 0.5 h [5]: 2.31
tissue to tissue ratio at 2 h [5]: 2.29
tissue to tissue ratio at 4 h [5]: 2.09
tissue to tissue ratio at 24 h [5]: 4.13
tissue to tissue ratio at 0.5 h [6]: 14.4
tissue to tissue ratio at 2 h [6]: 7.83
tissue to tissue ratio at 4 h [6]: 8.62
tissue to tissue ratio at 24 h [6]: 6
tissue to tissue ratio at 0.5 h [7]: 30.7
tissue to tissue ratio at 2 h [7]: 28.4
tissue to tissue ratio at 4 h [7]: 23.8
tissue to tissue ratio at 24 h [7]: 18.2
tissue to tissue ratio at 0.5 h [8]: 32.5
tissue to tissue ratio at 2 h [8]: 292
tissue to tissue ratio at 4 h [8]: 879
tissue to tissue ratio at 24 h [8]: 492
tissue uptake dose at 2 h: 1.48 ± 0.17 %ID
tissue to tissue ratio at 2 h (Uptake ratio Tumor/kidney): 0.19
tissue to tissue ratio at 2 h (Uptake ratio Tumor/liver): 0.92
tissue to tissue ratio at 2 h (Uptake ratio Tumor/lung): 2.44
